Experimental findings from ChEMBL document CHEMBL5653615 (J Biol Chem, 2013) are described below.

Test [1] concerns the target Mitogen-activated protein kinase 10 (Homo sapiens) (UniProt P53779). As to the kind of experiment: Inhibition of human JNK3 at 18.6 nM by HotSpot assay relative to control.
In test [2] the target is T1, Mitogen-activated protein kinase kinase kinase kinase 2 (Homo sapiens) (UniProt Q12851).
T1 sequence (whole entry): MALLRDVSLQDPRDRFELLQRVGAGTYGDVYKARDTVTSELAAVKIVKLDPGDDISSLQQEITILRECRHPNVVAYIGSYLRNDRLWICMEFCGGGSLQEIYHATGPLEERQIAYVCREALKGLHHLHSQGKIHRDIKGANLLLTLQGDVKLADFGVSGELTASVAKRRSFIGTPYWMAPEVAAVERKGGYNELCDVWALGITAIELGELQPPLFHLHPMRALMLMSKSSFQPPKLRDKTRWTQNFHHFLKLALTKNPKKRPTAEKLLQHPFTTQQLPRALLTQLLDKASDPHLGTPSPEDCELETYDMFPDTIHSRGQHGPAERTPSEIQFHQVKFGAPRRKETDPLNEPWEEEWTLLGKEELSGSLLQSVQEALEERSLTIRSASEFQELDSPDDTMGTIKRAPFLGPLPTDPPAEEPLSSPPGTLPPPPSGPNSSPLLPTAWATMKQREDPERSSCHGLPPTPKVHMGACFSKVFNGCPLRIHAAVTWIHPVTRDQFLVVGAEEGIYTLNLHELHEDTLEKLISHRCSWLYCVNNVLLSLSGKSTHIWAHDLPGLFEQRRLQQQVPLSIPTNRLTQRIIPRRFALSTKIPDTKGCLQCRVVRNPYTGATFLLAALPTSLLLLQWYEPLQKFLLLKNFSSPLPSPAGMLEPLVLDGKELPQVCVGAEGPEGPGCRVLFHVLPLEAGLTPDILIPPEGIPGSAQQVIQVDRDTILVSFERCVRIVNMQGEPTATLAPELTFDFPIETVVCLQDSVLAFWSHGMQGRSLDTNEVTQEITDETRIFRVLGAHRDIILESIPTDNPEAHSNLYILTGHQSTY
In words: Inhibition of human GCK at 18.6 nM by HotSpot assay relative to control.

For test [3], the target named is Vascular endothelial growth factor receptor 2 (Homo sapiens) (UniProt P35968). As to the kind of experiment: Inhibition of human KDR at 18.6 nM by HotSpot assay relative to control.
The target of test [4] is Homeodomain-interacting protein kinase 2 (Homo sapiens) (UniProt Q9H2X6). In words: Inhibition of human HIPK2 at 1.82 nM by HotSpot assay relative to control.
Test [5] has as its target Homeodomain-interacting protein kinase 1 (Homo sapiens) (UniProt Q86Z02). As to the kind of experiment: Inhibition of human HIPK1 at 1.82 nM by HotSpot assay relative to control.
Test [6] has as its target T2, Serine/threonine-protein kinase Chk1 (Homo sapiens) (UniProt O14757).
T2 sequence (whole entry): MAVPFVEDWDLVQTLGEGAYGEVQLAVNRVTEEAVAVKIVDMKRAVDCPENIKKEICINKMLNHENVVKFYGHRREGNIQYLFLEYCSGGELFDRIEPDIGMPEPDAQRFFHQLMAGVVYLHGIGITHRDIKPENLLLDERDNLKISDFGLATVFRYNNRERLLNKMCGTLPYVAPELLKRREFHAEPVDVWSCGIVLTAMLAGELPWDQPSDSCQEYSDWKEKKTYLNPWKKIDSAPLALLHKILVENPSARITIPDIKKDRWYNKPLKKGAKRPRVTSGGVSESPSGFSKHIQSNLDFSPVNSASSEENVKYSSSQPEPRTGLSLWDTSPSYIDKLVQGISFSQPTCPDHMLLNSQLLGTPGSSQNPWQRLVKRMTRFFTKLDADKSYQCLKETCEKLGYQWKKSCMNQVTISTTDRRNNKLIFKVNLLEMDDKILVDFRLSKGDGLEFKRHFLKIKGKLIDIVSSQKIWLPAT
As to the kind of experiment: Inhibition of human CHK1 at 1.82 nM by HotSpot assay relative to control.

In test [7] the target is STE20-like serine/threonine-protein kinase (Homo sapiens) (UniProt Q9H2G2). In words: Inhibition of human STK2 at 1.82 nM by HotSpot assay relative to control.
Test [8] addresses T3, cGMP-dependent protein kinase 1 (Homo sapiens) (UniProt Q13976).
T3 sequence (whole entry): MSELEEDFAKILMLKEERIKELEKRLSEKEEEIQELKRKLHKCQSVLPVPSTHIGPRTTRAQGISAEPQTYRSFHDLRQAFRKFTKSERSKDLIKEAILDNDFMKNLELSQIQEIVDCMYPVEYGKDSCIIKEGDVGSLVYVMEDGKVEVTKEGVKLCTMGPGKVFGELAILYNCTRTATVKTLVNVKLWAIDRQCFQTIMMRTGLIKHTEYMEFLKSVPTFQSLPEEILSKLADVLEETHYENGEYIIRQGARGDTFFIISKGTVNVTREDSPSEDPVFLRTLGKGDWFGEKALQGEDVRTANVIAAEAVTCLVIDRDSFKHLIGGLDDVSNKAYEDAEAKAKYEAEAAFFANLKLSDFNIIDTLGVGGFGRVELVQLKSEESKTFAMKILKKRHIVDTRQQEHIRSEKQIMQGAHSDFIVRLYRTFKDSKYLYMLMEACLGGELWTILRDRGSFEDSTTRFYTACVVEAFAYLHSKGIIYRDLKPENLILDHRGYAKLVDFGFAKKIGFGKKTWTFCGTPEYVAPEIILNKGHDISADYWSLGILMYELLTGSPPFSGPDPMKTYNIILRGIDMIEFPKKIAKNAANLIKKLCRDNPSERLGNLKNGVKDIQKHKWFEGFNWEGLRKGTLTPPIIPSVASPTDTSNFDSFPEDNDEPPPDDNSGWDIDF
In words: Inhibition of human PKG1a at 1.82 nM by HotSpot assay relative to control.

The target of test [9] is Tyrosine-protein kinase Yes (Homo sapiens) (UniProt P07947). As to the kind of experiment: Inhibition of human YES1 at 1.82 nM by HotSpot assay relative to control.
The target of test [10] is Death-associated protein kinase 1 (Homo sapiens) (UniProt P53355). In words: Inhibition of human DAPK1 at 1.82 nM by HotSpot assay relative to control.

Homeodomain-interacting protein kinase 1 (Homo sapiens), sequence (Q86Z02 whole entry, looked up): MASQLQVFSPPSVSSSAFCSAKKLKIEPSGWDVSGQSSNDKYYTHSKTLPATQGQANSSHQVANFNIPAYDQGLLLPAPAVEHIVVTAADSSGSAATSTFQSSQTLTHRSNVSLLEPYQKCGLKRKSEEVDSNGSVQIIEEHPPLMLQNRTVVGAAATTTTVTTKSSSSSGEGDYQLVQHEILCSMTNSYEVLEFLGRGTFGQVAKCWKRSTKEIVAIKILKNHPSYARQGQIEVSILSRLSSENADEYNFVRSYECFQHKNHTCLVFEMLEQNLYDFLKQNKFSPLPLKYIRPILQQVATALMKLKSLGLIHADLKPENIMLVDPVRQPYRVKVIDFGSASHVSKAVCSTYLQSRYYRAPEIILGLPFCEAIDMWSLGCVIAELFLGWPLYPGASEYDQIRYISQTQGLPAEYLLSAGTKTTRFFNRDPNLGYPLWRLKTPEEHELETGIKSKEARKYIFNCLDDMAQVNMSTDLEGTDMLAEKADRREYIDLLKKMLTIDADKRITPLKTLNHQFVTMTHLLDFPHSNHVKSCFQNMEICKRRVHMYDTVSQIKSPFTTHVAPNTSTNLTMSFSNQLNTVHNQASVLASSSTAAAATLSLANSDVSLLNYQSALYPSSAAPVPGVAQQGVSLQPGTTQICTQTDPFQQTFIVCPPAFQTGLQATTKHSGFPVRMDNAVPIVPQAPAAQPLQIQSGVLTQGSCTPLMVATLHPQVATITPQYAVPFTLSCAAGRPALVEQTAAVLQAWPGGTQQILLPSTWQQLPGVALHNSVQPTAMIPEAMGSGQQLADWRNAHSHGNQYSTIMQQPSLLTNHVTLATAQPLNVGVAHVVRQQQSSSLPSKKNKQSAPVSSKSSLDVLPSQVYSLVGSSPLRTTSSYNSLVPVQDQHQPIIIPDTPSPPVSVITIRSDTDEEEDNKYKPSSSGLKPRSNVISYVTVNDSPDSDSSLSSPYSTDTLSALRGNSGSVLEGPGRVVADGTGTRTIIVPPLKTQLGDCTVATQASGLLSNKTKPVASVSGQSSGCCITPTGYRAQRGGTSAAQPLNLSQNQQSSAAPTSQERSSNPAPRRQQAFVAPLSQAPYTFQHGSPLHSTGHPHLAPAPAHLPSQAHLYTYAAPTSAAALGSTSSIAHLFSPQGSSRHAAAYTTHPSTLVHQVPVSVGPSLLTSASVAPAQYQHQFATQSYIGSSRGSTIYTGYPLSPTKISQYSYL
Mitogen-activated protein kinase 10 (Homo sapiens), sequence (P53779 whole entry): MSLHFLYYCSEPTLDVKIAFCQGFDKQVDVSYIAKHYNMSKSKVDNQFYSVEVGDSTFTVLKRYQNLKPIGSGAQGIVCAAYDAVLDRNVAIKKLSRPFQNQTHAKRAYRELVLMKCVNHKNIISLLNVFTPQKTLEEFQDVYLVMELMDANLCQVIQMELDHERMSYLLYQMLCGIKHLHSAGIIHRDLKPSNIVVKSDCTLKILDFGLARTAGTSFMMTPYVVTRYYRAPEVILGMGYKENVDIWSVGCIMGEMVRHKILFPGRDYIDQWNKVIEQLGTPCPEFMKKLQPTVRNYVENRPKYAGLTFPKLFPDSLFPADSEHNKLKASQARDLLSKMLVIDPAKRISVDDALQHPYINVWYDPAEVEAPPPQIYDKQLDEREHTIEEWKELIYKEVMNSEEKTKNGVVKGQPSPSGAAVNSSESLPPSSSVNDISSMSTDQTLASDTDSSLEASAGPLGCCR
Vascular endothelial growth factor receptor 2 (Homo sapiens), sequence (P35968 whole entry): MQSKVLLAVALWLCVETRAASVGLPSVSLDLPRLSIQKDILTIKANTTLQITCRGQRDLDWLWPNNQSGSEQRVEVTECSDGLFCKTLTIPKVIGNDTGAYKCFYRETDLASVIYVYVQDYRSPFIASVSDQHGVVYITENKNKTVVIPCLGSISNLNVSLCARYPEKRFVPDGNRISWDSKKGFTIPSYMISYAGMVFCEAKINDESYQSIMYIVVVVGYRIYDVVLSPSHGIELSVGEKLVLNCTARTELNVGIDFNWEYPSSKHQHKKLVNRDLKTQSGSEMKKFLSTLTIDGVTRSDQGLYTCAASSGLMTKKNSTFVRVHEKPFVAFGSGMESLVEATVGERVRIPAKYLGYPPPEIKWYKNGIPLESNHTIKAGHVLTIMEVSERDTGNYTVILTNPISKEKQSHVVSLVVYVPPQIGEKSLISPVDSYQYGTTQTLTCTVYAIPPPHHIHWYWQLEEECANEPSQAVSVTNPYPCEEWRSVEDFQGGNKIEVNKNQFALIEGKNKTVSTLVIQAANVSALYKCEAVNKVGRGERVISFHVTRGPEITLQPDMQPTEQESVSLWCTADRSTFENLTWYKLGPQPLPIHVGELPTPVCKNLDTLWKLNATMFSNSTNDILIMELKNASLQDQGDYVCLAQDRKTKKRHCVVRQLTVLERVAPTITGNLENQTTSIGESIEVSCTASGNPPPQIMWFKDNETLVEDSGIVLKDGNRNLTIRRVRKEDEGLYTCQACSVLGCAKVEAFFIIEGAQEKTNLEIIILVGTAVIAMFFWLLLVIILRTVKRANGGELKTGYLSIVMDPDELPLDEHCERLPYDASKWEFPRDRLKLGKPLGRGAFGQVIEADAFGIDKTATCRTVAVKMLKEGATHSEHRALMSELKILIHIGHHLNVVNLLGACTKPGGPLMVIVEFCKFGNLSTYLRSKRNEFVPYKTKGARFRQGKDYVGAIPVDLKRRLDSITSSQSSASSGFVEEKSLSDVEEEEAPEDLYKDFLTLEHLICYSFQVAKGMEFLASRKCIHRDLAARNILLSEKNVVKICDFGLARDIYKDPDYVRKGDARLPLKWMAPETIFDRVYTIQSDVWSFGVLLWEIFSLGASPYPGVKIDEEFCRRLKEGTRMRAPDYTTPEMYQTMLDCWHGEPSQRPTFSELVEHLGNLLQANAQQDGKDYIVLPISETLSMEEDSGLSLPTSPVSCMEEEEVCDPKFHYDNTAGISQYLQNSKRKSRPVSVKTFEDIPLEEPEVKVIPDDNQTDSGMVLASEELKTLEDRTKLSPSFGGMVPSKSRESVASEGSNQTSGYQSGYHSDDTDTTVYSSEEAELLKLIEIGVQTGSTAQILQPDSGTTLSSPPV
Homeodomain-interacting protein kinase 2 (Homo sapiens), sequence (Q9H2X6 whole entry, looked up): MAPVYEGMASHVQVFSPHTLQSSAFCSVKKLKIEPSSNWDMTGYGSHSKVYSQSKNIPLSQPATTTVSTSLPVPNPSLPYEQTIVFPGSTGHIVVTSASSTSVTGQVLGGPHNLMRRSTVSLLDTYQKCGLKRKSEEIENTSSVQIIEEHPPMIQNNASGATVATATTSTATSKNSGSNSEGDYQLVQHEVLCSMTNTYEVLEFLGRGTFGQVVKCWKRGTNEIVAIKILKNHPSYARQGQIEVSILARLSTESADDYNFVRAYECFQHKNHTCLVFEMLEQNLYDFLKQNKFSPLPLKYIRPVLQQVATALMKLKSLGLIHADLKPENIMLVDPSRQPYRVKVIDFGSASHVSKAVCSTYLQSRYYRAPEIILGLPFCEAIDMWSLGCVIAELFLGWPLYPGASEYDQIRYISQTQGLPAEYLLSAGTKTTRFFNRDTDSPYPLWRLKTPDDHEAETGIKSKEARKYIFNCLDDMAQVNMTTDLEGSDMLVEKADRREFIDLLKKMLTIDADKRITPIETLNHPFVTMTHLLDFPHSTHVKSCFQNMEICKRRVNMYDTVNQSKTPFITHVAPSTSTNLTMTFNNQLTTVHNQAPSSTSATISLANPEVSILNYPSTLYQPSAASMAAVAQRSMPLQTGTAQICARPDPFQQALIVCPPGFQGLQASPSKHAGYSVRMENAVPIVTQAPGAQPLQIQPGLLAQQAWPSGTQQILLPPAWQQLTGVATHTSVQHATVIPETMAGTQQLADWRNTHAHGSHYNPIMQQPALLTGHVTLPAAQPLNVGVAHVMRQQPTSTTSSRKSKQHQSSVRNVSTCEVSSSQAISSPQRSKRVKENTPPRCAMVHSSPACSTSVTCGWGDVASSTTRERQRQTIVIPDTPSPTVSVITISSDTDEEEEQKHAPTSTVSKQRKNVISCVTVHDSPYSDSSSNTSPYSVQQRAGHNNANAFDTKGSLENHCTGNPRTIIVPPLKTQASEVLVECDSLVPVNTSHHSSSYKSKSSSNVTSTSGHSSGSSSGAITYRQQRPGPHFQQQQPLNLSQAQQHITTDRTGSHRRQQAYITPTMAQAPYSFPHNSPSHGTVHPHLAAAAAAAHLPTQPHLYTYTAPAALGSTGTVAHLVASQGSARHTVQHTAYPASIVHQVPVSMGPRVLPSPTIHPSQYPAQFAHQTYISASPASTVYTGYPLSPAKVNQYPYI
Tyrosine-protein kinase Yes (Homo sapiens), sequence (P07947 2-543 limits assumed): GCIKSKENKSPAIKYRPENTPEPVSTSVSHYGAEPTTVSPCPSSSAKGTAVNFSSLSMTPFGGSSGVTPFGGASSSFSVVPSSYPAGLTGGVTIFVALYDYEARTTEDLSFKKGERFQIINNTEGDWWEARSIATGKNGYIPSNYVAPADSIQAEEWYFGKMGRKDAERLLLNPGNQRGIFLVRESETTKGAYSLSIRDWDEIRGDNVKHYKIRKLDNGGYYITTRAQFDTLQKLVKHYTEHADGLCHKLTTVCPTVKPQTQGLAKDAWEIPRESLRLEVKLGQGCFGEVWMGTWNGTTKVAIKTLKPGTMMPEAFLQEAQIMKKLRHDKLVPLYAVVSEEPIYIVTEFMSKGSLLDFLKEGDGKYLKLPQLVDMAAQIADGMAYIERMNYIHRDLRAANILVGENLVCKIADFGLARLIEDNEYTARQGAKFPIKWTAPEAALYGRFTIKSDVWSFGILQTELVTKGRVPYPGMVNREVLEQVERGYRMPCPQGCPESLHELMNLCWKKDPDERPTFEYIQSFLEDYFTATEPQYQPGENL

Turning to `C[C@]1(O)C[C@@H](c2nc(-c3ccc4ccc(-c5ccccc5)nc4c3)c3c(N)nccn32)C1`, the inhibition (in general, the change of the read-out against control, counted positive when it falls) in test [1] is -3.24%; in test [2] it was 1.94%; in [3] it was -3.85%.
`C[C@@]1(C(=O)Nc2ccc(F)nc2)CCCN1c1nc(Nc2cc(C3CC3)n[nH]2)c2cccn2n1`: the inhibition in test [4] is 3.96%; in test [5], -6.64%; in test [6], -4.39%; in test [7], 15.4%; in test [8], 5.76%; in [9] it was 5.36%. Also, the inhibition in [10] turned out to be 3.56%.
